Measurements as given in ChEMBL document CHEMBL1201862, “PubChem BioAssay data set” (2004).
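Each compound was tested at five concentrations against cells in 96-well plates for 48 hours. GI50: concentration for 50% inhibition of growth.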 Activity calls are given as the source filed them. Rule as the data show it: active = GI50 up to about 1.1 µM and inactive = higher. Where a SMILES comes first, the peptide text is derived from it. The star is where a group is joined. Fmoc = O=C(OCC1c2ccccc2-c2ccccc21)*; OtBu = CC(C)(C)O*

What was measured:
Test in all cases: DTP human tumour cell line panel, 48 h
[1] = system: SF-295
[2] = system: TK-10
[3] = system: OVCAR-5
[4] = system: M14
[5] = system: CAKI-1
[6] = system: HOP-92
[7] = system: UACC-257
[8] = system: NCI-H522
[9] = system: KM-20L2
[10] = system: M19-MEL
[11] = system: HT-29
[12] = system: COLO 205
[13] = system: HCC 2998
[14] = system: CCRF-CEM
[15] = system: U-251
[16] = system: RPMI-8226
[17] = system: HOP-62
[18] = system: SR
[19] = system: SN12C
[20] = system: PC-3

Measured: GI50

COC(=O)C(=O)C(C(=O)C(=O)Nc1cccc(C(C)=O)c1)c1nc2ccccc2nc1O (stereo not drawn)
inactive: [1] > 100 µM | [2] > 100 µM | [3] > 100 µM | [4] > 100 µM | [5] > 100 µM | [6] > 100 µM | [7] > 100 µM | [8] > 100 µM | [9] > 100 µM | [10] > 100 µM | [11] > 100 µM | [12] > 100 µM | [13] > 100 µM | [14] > 100 µM

CC(=O)NC1=C(C)C(=O)c2c(nc3n2CCC3OC(=O)CCl)C1=O (stereo not drawn)
inactive: [1] 16.1 µM | [15] 3.3 µM | [2] 21 µM | [3] 12.9 µM | [4] 18.2 µM | [16] 2.65 µM | [17] 17.1 µM | [5] 20.9 µM | [6] 2.33 µM | [7] 12.7 µM | [18] 2.68 µM | [8] 3.05 µM | [10] 12.5 µM | [11] 15.6 µM | [12] 17.5 µM | [13] 12.9 µM | [14] 1.45 µM | [19] 11.7 µM

N#CC(C(=O)CCC(=O)Nc1ccc(Cl)cc1)c1ccc(Cl)cc1 (stereo not drawn)
inactive: [1] > 100 µM | [15] > 100 µM | [2] > 100 µM | [3] > 100 µM | [4] 52 µM | [16] > 100 µM | [17] > 100 µM | [5] 92.5 µM | [6] > 100 µM | [7] > 100 µM | [8] > 100 µM | [9] 11.5 µM | [10] > 100 µM | [11] > 100 µM | [12] > 100 µM | [13] > 100 µM | [14] > 100 µM | [19] > 100 µM

C[C@@H](NS(=O)(=O)c1ccc(NC(=O)c2ccccc2)cc1)C(=O)O
inactive: [1] > 100 µM | [15] > 100 µM | [2] > 100 µM | [3] > 100 µM | [4] > 100 µM | [16] > 100 µM | [5] > 100 µM | [6] > 100 µM | [7] > 100 µM | [8] > 100 µM | [9] > 100 µM | [10] > 100 µM | [11] > 100 µM | [12] > 100 µM | [13] > 100 µM | [14] > 100 µM | [19] > 100 µM

O=[N+]([O-])/C(C(Cl)=C(Cl)Cl)=C(/Nc1ccccc1)SCc1ccccc1
inactive: [1] 34.4 µM | [15] 20.1 µM | [2] 29.8 µM | [3] 20 µM | [4] 16.9 µM | [16] 14.1 µM | [17] 19.1 µM | [5] 31.9 µM | [6] 31 µM | [7] 24 µM | [18] 22.3 µM | [8] 23.3 µM | [11] 29.6 µM | [20] 24.5 µM | [12] 21.9 µM | [13] 24.3 µM | [14] 15 µM | [19] 22.4 µM

O=C1C2C(C(=O)N1c1ccccc1)C1(c3ccccc3)OC2(c2ccccc2)c2ccccc21 (stereo not drawn)
inactive: [1] > 100 µM | [15] > 100 µM | [2] > 100 µM | [3] 4.14 µM | [4] > 100 µM | [16] > 100 µM | [17] > 100 µM | [5] > 100 µM | [6] 1.93 µM | [7] > 100 µM | [8] 30.6 µM | [9] > 100 µM | [10] > 100 µM | [11] > 100 µM | [12] > 100 µM | [13] > 100 µM | [14] > 100 µM | [19] > 100 µM

CN(C)C(=S)OC(Cn1cncn1)c1ccc(Cl)cc1Cl (stereo not drawn)
inactive: [1] > 100 µM | [15] > 100 µM | [2] > 100 µM | [3] > 100 µM | [4] > 100 µM | [16] > 100 µM | [17] > 100 µM | [5] > 100 µM | [6] 72.8 µM | [7] > 100 µM | [8] > 100 µM | [9] > 100 µM | [10] > 100 µM | [11] > 100 µM | [12] > 100 µM | [13] > 100 µM | [19] > 100 µM

CC#CC(=O)Nc1ccccc1CC(c1c[nH]c2ccccc12)c1c[nH]c2ccccc12
inactive: [1] 20.3 µM | [2] 29.9 µM | [4] 15 µM | [16] 8.32 µM | [17] 20 µM | [5] 20.6 µM | [7] 21.5 µM | [8] > 10 µM | [10] 15.3 µM | [11] 16.2 µM | [12] 15.5 µM | [13] 18.3 µM | [14] 11.3 µM | [19] 15.1 µM

O=C(O)C[C@@H](Cl)[C@H](NC(=O)OCc1ccccc1)C(=O)O
inactive: [1] > 100 µM | [15] > 100 µM | [2] > 100 µM | [3] > 100 µM | [4] > 100 µM | [16] > 100 µM | [17] > 100 µM | [5] > 100 µM | [6] > 100 µM | [7] > 100 µM | [8] > 100 µM | [9] > 100 µM | [10] > 100 µM | [11] > 100 µM | [12] > 100 µM | [13] > 100 µM | [14] > 100 µM | [19] > 100 µM

C=C1C(=O)C23CC1C[C@H](OC(C)=O)C2C1(C)C(OC(C)=O)C[C@H](O)C(C)(C)[C@H]1C(O)[C@@H]3OC(C)=O (stereo partly drawn)
inactive: [1] 24.8 µM | [15] 15.3 µM | [2] 3.79 µM | [3] 14.6 µM | [4] 6.5 µM | [16] 4.27 µM | [17] 18.9 µM | [5] 16.4 µM | [6] 9.29 µM | [7] 11.9 µM | [18] 7.48 µM | [8] 1.61 µM | [11] 15.5 µM | [20] 11.1 µM | [12] 4.13 µM | [13] 21.2 µM | [14] 2.24 µM | [19] 8.07 µM

CC(C)C(NC(=O)OCC1c2ccccc2-c2ccccc21)C(=O)NC(CCC(=O)OC(C)(C)C)C(=O)OC(C)(C)C (stereo not drawn) (Fmoc-Val-Glu(OtBu)-OtBu; configuration not given here)
inactive: [1] 17.2 µM | [15] 7.59 µM | [2] > 100 µM | [3] > 100 µM | [4] > 100 µM | [16] 2.92 µM | [17] > 93.1 µM | [5] > 100 µM | [6] > 42 µM | [7] > 100 µM | [18] 3.29 µM | [8] > 45.1 µM | [11] > 100 µM | [20] 3.99 µM | [12] > 31.6 µM | [13] > 100 µM | [14] > 100 µM | [19] > 31.6 µM
